Experimental data as given in ChEMBL document CHEMBL3856232, “Synthesis and biological evaluation of novel 2-imino-4-thiazolidinone derivatives as potent anti-cancer agents” (Bioorg Med Chem Lett, 2016).
Calls of active or inactive are those of the source. No cut-off for these calls is given here.

Legend:
[1] = (§1) Cytotoxicity against mouse B16F10 cells assessed as reduction in cell viability after 48 hrs by MTT assay; format: functional, cell-based; conditions: B16-F10, 48 h
[2] = (§2) Cytotoxicity against human A549 cells assessed as reduction in cell viability after 48 hrs by MTT assay; format: functional, cell-based; conditions: A549, 48 h
PANC-1 = assay: Cytotoxicity against human PANC1 cells assessed as reduction in cell viability up to 100 uM after 48 hrs by MTT assay; format: functional, cell-based
B16-F10 [3] = assay: as §1; format: functional, cell-based
A549 = assay: as §2; format: functional, cell-based
[4] = Cytotoxicity against mouse B16F10 cells assessed as inhibition of cell viability at 4 uM after 48 hrs by MTT assay relative to control; format: functional; conditions: B16-F10, 48 h
[5] = Cytotoxicity against human A549 cells assessed as inhibition of cell viability at 4 uM after 48 hrs by MTT assay relative to control; format: functional; conditions: A549, 48 h
[6] = Cytotoxicity against CHO cells assessed as reduction in cell viability up to 100 uM after 48 hrs by MTT assay; format: toxicity, cell-based, Cricetulus griseus; conditions: chinese hamster
[7] = Cell cycle arrest in mouse B16F10 cells assessed as accumulation in sub G0/G1 phase at 50 uM after 24 hrs by propidium iodide staining based FACS analysis; format: functional; conditions: B16-F10
[8] = Cell cycle arrest in mouse B16F10 cells assessed as decrease in G0/G1 phase at 50 uM after 24 hrs by propidium iodide staining based FACS analysis; format: functional; conditions: B16-F10
B16-F10 [9] = assay: Induction of apoptosis in mouse B16F10 cells assessed as DNA damage at 50 uM after 24 hrs by propidium iodide/Hoechst staining based FACS analysis; format: functional, cell-based
[10] = Cytotoxicity against CHO cells assessed as reduction in cell viability up to 10 uM after 48 hrs by MTT assay; format: toxicity, cell-based, Cricetulus griseus; conditions: chinese hamster
[11] = Cytotoxicity against CHO cells assessed as reduction in cell viability at 50 to 100 uM after 48 hrs by MTT assay; format: toxicity, cell-based, Cricetulus griseus; conditions: chinese hamster
B16-F10 [12] = assay: Induction of intracellular hydrogen peroxide accumulation in mouse B16F10 cells at 50 uM after 24 hrs by DCF-DA staining based fluorescence microscopic analysis; format: functional, cell-based
B16-F10 [13] = assay: Induction of intracellular superoxide radical accumulation in mouse B16F10 cells at 50 uM by dihydroethidium staining based fluorescence microscopic analysis; format: functional, cell-based
[14] = Cell cycle arrest in mouse B16F10 cells assessed as accumulation in G2/M phase at 50 uM after 24 hrs by propidium iodide staining based FACS analysis; format: functional; conditions: B16-F10

Compound | Activity (B16-F10 [3]) | Activity (A549) | other results
CCNCC(=O)Nc1ccc(/N=C2\SCC(=O)N2Cc2cccs2)cc1 |  |  | IC50 [1]: 11.6 µM; IC50 [2]: 12.6 µM; Activity (PANC-1): Active
CN1CCN(CC(=O)Nc2ccc(/N=C3\SCC(=O)N3Cc3cccs3)cc2)CC1 | Active | Active | 
COc1cccc2c1C(=O)c1c(O)c3c(c(O)c1C2=O)C[C@@](O)(C(=O)CO)C[C@@H]3O[C@H]1C[C@H](N)[C@H](O)[C@H](C)O1 [DOXORUBICIN] |  |  | inhibition at 4 µM [4]: 40.9%; inhibition at 4 µM [5]: 28%
O=C(CN1CCCCC1)Nc1ccc(/N=C2\SCC(=O)N2Cc2cccs2)cc1 | Active | Active | 
CCN(CC)CC(=O)Nc1ccc(/N=C2\SCC(=O)N2Cc2cccs2)cc1 |  |  | IC50 [1]: 7 µM; IC50 [2]: 12.5 µM; Activity [6]: Non-Toxic; Activity [7]: Active; Activity [8]: Active; Activity (B16-F10 [9]): Active
O=C(CN1CCSCC1)Nc1ccc(/N=C2\SCC(=O)N2Cc2cccs2)cc1 |  |  | IC50 [2]: 10 µM
O=C(CN1CCN(C(=O)c2ccccc2)CC1)Nc1ccc(/N=C2\SCC(=O)N2Cc2cccs2)cc1 |  |  | IC50 [2]: 10 µM
O=C(CN1CCOCC1)Nc1ccc(/N=C2\SCC(=O)N2Cc2ccco2)cc1 | Active | Active | 
O=C(CN1CCN(c2ccc(F)cc2)CC1)Nc1ccc(/N=C2\SCC(=O)N2Cc2cccs2)cc1 | Active | Active | 
O=C(CN1CCCC1)Nc1ccc(/N=C2\SCC(=O)N2Cc2ccco2)cc1 | Active | Active | 
CCCNCC(=O)Nc1ccc(/N=C2\SCC(=O)N2Cc2cccs2)cc1 |  |  | IC50 [1]: 3.4 µM; Activity [10]: Non-Toxic; Activity [11]: Toxic; Activity (B16-F10 [12]): Active; Activity (B16-F10 [13]): Active; Activity [14]: Active; Activity (B16-F10 [9]): Active
CN(C)CC(=O)Nc1ccc(/N=C2\SCC(=O)N2Cc2cccs2)cc1 | Active | Active | 
O=C(CN1CCCCC1)Nc1ccc(/N=C2\SCC(=O)N2Cc2ccco2)cc1 | Active | Active | 
O=C(CN1CCCC1)Nc1ccc(/N=C2\SCC(=O)N2Cc2cccs2)cc1 |  |  | IC50 [1]: 5.4 µM; Activity [6]: Non-Toxic; Activity [7]: Active; Activity [8]: Active; Activity (B16-F10 [9]): Active
CCN(CC)CC(=O)Nc1ccc(/N=C2\SCC(=O)N2Cc2ccco2)cc1 | Active | Active | 
O=C(CN1CCSCC1)Nc1ccc(/N=C2\SCC(=O)N2Cc2ccco2)cc1 | Active | Active | 
O=C(CN1CCN(c2ccccn2)CC1)Nc1ccc(/N=C2\SCC(=O)N2Cc2cccs2)cc1 | Active | Active | 
N#Cc1ccccc1N1CCN(CC(=O)Nc2ccc(/N=C3\SCC(=O)N3Cc3ccco3)cc2)CC1 | Active | Active | 
COc1ccccc1N1CCN(CC(=O)Nc2ccc(/N=C3\SCC(=O)N3Cc3ccco3)cc2)CC1 | Active | Active | 
O=C(CN1CCOCC1)Nc1ccc(/N=C2\SCC(=O)N2Cc2cccs2)cc1 |  |  | IC50 [2]: 12.6 µM
CN(C)CC(=O)Nc1ccc(/N=C2\SCC(=O)N2Cc2ccco2)cc1 | Active | Active | 
